Where two headings read alike, the source gives them in different places.
What was measured:
human Hsp90α NTD [1] = target: T1, human Hsp90α NTD (Homo sapiens, UniProt P07900); test: fluorescence-based thermal shift assay (FTSA), binding to Hsp90; details: for Kd: FTSA
T1 construct: Production and purification of recombinant Hsp90α NTD have been described previously; made in house
Method: Production and purification of recombinant Hsp90α NTD have been described previously. The molecular weight of the protein has been confirmed by high-resolution mass spectrometry, purity by SDS-PAGE, and the concentration was determined by UV-VIS spectrophotometry at 280 nm. The synthesis, chemical structure determination, and purity of compounds 1-7 have been previously described.
Compound binding to Hsp90 was determined by the fluorescence-based thermal shift assay (FTSA) which determines the thermal stability of the free and ligand-bound protein [61, 62, 63]. The stabilization efficiency is directly related to the ligand-binding affinity. The experiments were carried out with Corbett Rotor-Gene 6000 (QIAGEN Rotor-Gene Q) spectrofluorimeter (using excitation 365 ± 20 nm and detection at 460 ± 15 nm). Protein solutions in the presence of various concentrations of a compound were heated from 25 to 95 °C at a rate of 1 °C/min. Protein unfolding was monitored by measuring the fluorescence of 8-anilino-1-naphthalenesulfonate (ANS) dye at added 50 μM concentration. Increasing concentration of a compound shifted the protein denaturation temperature increasingly upwards depending on the binding affinity. Samples contained 5 μM protein, ligand concentration ranging from 0 to 200 μM, […] (pH 7.5) containing […] and 2% DMSO. Protein melting temperatures were determined by fitting the fluorescence curves while the compound dosing curves were simulated as described previously. All experiments were repeated at least twice.

E. coli DNA gyrase [2] = target: T2, E. coli DNA gyrase (Escherichia coli, UniProt P0AES6); test: DNA supercoiling assay (Inspiralis); format: biochemical
T2 construct: purchased Inspiralis
Method: The DNA supercoiling assay from Inspiralis for the determination of IC50 values was performed according to previously reported procedures.

[3] = target: T3, human DNA topoisomerase IIα (Homo sapiens, UniProt P11388); test: human DNA topoisomerase IIα DNA relaxation assay (Inspiralis); format: biochemical; details: for IC50: DNA relaxation assay, read-out: Human TopoII IC50; for inhibition of TopoII (in words): concentrations up to 100 μM
T3 construct: purchased Inspiralis
Method: Inhibitory activities were determined in an assay from Inspiralis on streptavidin-coated 96-well microtitre plates from Thermo Scientific Pierce. […] After washing off the unbound oligonucleotide, the enzyme assay was performed. […] Reaction solutions were incubated at 37 °C for 30 min. After that, the TF buffer (50 mM NaOAc, 50 mM NaCl, and 50 mM MgCl2, pH 5.0) was added to terminate the enzymatic reaction. After additional incubation for 30 min at RT, during which biotin–oligonucleotide–plasmid triplex was formed, the unbound plasmid was washed off using TF buffer, and Diamond Dye in T10 buffer (10 mM Tris·HCl, 1 mM EDTA, pH 8.0) was added. […] Initial screening was done at 100 or 10 μM concentrations of inhibitors. […] GraphPad Prism 6 software was used to calculate the IC50 values. The results are reported as the average value of three independent measurements.

human Hsp90α NTD [4] = target: T1, human Hsp90α NTD; test: fluorescence-based thermal shift assay (FTSA), binding to Hsp90; details: concentrations up to 100 μM
[5] = system: Hsp90 C-terminal domain (CTD); design: method as in PMID 10945979, PMID 10655441; details: cited from earlier work
human TopoII = system: human TopoII; design: method as in PMID 2537141; details: cited from earlier work
E. coli DNA gyrase [6] = target: T2, E. coli DNA gyrase; details: cited from earlier work
human Hsp90α NTD [7] = target: T1, human Hsp90α NTD; details: cited from earlier work
[8] = DNA supercoiling assay, read-out: E. coli DNA gyrase IC50

T3 sequence (P11388 whole entry): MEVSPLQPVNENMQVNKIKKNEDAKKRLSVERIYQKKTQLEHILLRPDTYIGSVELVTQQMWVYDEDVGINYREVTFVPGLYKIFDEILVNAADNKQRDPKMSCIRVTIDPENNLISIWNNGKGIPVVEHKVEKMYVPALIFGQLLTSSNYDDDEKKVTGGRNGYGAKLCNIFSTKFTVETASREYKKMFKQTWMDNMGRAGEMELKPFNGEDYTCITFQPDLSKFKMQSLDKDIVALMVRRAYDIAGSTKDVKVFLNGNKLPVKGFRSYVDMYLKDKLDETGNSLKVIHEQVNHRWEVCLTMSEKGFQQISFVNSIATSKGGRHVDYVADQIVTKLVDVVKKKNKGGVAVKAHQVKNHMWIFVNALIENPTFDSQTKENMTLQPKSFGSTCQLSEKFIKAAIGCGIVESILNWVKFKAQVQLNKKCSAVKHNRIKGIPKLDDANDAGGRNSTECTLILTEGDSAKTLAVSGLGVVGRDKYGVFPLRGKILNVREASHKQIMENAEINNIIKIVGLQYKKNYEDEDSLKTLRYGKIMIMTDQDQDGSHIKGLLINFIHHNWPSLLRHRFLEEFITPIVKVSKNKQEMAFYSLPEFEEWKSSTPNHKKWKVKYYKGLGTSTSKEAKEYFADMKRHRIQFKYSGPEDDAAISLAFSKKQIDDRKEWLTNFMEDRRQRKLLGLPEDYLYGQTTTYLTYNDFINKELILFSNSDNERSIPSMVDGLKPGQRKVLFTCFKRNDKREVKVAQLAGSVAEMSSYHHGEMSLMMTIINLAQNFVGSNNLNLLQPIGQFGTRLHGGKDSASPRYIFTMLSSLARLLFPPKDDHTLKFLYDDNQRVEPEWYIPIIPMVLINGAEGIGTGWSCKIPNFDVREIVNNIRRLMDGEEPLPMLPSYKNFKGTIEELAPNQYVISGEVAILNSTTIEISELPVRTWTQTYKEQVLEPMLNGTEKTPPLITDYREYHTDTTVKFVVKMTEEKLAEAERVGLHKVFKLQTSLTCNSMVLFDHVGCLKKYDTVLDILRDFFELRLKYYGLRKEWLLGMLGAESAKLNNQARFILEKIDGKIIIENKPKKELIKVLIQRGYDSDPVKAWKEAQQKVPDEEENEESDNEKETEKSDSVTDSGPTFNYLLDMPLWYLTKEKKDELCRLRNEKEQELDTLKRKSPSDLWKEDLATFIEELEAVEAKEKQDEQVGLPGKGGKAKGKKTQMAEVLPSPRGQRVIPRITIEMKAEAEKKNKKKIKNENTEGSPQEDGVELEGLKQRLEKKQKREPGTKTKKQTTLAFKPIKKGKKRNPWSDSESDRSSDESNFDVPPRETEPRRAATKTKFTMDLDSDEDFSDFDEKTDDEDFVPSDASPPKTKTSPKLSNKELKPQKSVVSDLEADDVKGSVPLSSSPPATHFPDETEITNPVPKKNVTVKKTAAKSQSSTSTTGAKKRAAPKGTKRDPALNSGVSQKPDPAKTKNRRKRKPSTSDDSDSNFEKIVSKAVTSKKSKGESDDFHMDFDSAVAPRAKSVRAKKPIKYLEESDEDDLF

In the case of `NS(=O)(=O)c1c(F)c(F)c(SCCO)c(F)c1NC1CCCCCCC1` [Compound 7], the “activity at Hsp90 in vitro (in words)” value (human Hsp90α NTD [1]) is reported as “inactive”, the Kd (human Hsp90α NTD [1]) is reported as greater than 100 µM and the “activity at GyrB / DNA gyrase in vitro (in words)” value (from here on “activity at GyrB / DNA gyrase”) (E. coli DNA gyrase [2]) is reported as “inactive”. For the same molecule, the IC50 (E. coli DNA gyrase [2]; [8]) was greater than 100 µM, the “activity at TopoII in vitro (in words)” value [3] was “inactive” and the IC50 [3] was greater than 100 µM.

For `O=C(O)C(=O)Nc1ccc2nc(NC(=O)c3cc(Cl)c(Cl)[nH]3)sc2c1` [Compound 1], the “activity at Hsp90 in vitro (in words)” value (human Hsp90α NTD [1]) was “inactive”, the Kd (human Hsp90α NTD [1]) was greater than 100 µM and the “binding to Hsp90α NTD (in words)” value (human Hsp90α NTD [4]) was “devoid of activity”. The “activity at TopoII in vitro (in words)” value [3] was “inactive”, the IC50 [3] was greater than 100 µM and the “inhibition of TopoII (in words)” value [3] was “devoid of activity”.

With `O=c1nc(SCc2cc(F)cc(C(F)(F)F)c2)nc(SCc2ccc(Cl)cc2)[nH]1` [Compound 6] the “activity at Hsp90 in vitro (in words)” value (human Hsp90α NTD [1]) was “inactive”, the Kd (human Hsp90α NTD [1]) was greater than 100 µM and the “activity at GyrB / DNA gyrase” value (E. coli DNA gyrase [2]) was “inactive”. For the same molecule, the IC50 (E. coli DNA gyrase [2]; [8]) was greater than 100 µM.

In the case of `CO[C@@H]1[C@@H](OC(N)=O)[C@@H](O)[C@H](Oc2ccc3c(O)c(NC(=O)c4ccc(O)c(CC=C(C)C)c4)c(=O)oc3c2C)OC1(C)C` [novobiocin], the “binding to allosteric binding site at Hsp90 CTD (in words)” value [5] is listed as “weakly bind” and the “inhibition of human TopoII (in words)” value (human TopoII) is listed as “inhibit”.

In the case of `O=c1nc(SCc2cc(F)cc(C(F)(F)F)c2)nc(SCc2ccccc2F)[nH]1` [Compound 5], the “activity at Hsp90 in vitro (in words)” value (human Hsp90α NTD [1]) is reported as “inactive”, the Kd (human Hsp90α NTD [1]) is reported as greater than 100 µM and the “activity at GyrB / DNA gyrase” value (E. coli DNA gyrase [2]) is reported as “inactive”. The IC50 (E. coli DNA gyrase [2]; [8]) was greater than 100 µM.

With `COc1ccc(-c2snnc2-c2cc(Cl)c(O)cc2O)cc1` [Compound 3] the IC50 (E. coli DNA gyrase [2]) was greater than 100 µM, the “activity at GyrB / DNA gyrase” value (E. coli DNA gyrase [2]) was “no inhibition” and the “activity at TopoII in vitro (in words)” value [3] was “no inhibition”. It also gave an IC50 [3] greater than 100 µM.

In the case of `Cc1[nH]c(C(=O)N[C@H]2CCc3nc(NC(=O)CC(=O)O)sc3C2)c(Br)c1Br` [Compound 2], the IC50 (E. coli DNA gyrase [6]; DNA supercoiling assay, read-out: Escherichia coli DNA gyrase IC50) is listed as less than 100 nM, the IC50 (E. coli DNA gyrase [6]; read-out: E. coli DNA gyrase IC50) is listed as 20 nM and the “activity at Hsp90 in vitro (in words)” value (human Hsp90α NTD [1]) is listed as “inactive”. The Kd (human Hsp90α NTD [1]) was greater than 100 µM, the “binding to Hsp90α NTD (in words)” value (human Hsp90α NTD [4]) was “devoid of activity” and the “activity at TopoII in vitro (in words)” value [3] was “inactive”. The IC50 [3] was greater than 100 µM and the “inhibition of TopoII (in words)” value [3] was “devoid of activity”.

In the case of `CC(C)Cc1cc(-c2nnsc2-c2ccccc2)c(O)cc1O` [Compound 4], the Kd (human Hsp90α NTD [7]) is listed as 6.6 nM, the “activity at GyrB / DNA gyrase” value (E. coli DNA gyrase [2]) is listed as “no inhibition” and the IC50 (E. coli DNA gyrase [2]; [8]) is listed as greater than 100 µM. For the same molecule, the “activity at TopoII in vitro (in words)” value [3] was “no inhibition” and the IC50 [3] was greater than 100 µM.

From paper PMC8400042, “Selective DNA Gyrase Inhibitors: Multi-Target in Silico Profiling with 3D-Pharmacophores” (Pharmaceuticals, 2021)
